Active and inactive are the calls of the source.
molecular target: Protein kinase C theta type (Homo sapiens, UniProt Q04759)
Note: in the data inactive means no Kd found up to 30 µM.

Sequence of Protein kinase C theta type (Q04759 whole entry): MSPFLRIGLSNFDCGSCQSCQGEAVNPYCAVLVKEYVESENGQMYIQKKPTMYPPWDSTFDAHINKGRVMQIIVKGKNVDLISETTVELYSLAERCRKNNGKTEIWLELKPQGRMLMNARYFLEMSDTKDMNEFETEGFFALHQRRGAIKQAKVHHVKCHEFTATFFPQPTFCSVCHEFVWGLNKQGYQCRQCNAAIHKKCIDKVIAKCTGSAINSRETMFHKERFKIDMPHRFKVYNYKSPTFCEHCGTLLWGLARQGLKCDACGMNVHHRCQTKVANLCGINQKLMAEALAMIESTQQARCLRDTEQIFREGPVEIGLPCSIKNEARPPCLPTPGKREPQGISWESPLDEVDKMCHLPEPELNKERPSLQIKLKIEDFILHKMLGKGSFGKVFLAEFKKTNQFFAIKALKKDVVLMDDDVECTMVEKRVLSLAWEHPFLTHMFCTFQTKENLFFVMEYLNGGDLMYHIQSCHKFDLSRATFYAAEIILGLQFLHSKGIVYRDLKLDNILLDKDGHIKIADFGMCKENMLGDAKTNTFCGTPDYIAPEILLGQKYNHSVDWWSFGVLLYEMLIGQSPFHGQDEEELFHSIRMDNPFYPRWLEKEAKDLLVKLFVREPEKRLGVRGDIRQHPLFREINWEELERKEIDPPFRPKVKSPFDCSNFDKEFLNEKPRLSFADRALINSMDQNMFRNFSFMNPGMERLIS

Structure (SMILES)	Kd
Cn1ncc(Cl)c1-c1cc(C(=O)N[C@H](CN)Cc2cccc(F)c2)sc1Cl [AFURESERTIB]	> 30 µM (inactive)
COc1cc(N2CCC(N3CCN(C)CC3)CC2)ccc1Nc1ncnc(Nc2ccccc2S(=O)(=O)C(C)C)n1 [ASP-3026]	> 30 µM (inactive)
CNS(=O)(=O)Nc1nccc(Cc2c(C)c3ccc(Oc4ncccn4)cc3oc2=O)c1F [AVUTOMETINIB]	> 30 µM (inactive)
Cc1cc2c(F)c(Oc3ncnn4cc(OC[C@@H](C)OC(=O)[C@H](C)N)c(C)c34)ccc2[nH]1 [BRIVANIB ALANINATE]	> 30 µM (inactive)
CNC(=O)c1ccc(-c2cnc3ncc(Cc4ccc5ncccc5c4)n3n2)cc1F [CAPMATINIB]	> 30 µM (inactive)

molecular target: T1, Phosphatidylinositol 5-phosphate 4-kinase type-2 alpha (Homo sapiens, UniProt P48426)
T1 sequence (P48426 whole entry): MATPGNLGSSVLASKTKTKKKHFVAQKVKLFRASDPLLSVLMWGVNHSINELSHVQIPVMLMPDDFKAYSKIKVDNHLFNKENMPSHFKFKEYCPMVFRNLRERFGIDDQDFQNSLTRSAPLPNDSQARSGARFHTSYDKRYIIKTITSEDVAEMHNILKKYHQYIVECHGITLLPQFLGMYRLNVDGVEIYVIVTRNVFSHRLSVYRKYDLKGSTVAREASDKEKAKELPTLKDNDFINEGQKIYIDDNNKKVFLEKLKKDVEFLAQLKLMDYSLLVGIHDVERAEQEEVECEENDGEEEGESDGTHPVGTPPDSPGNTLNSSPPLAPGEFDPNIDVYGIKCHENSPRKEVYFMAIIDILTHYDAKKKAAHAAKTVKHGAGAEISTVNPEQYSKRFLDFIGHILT

Structure (SMILES)	Kd
CNS(=O)(=O)Nc1nccc(Cc2c(C)c3ccc(Oc4ncccn4)cc3oc2=O)c1F [AVUTOMETINIB]	> 30 µM (inactive)
Cc1cc2c(F)c(Oc3ncnn4cc(OC[C@@H](C)OC(=O)[C@H](C)N)c(C)c34)ccc2[nH]1 [BRIVANIB ALANINATE]	> 30 µM (inactive)
CNC(=O)c1ccc(-c2cnc3ncc(Cc4ccc5ncccc5c4)n3n2)cc1F [CAPMATINIB]	> 30 µM (inactive)

molecular target: Proto-oncogene tyrosine-protein kinase receptor Ret (Homo sapiens, UniProt P07949)
Sequence (P07949 whole entry): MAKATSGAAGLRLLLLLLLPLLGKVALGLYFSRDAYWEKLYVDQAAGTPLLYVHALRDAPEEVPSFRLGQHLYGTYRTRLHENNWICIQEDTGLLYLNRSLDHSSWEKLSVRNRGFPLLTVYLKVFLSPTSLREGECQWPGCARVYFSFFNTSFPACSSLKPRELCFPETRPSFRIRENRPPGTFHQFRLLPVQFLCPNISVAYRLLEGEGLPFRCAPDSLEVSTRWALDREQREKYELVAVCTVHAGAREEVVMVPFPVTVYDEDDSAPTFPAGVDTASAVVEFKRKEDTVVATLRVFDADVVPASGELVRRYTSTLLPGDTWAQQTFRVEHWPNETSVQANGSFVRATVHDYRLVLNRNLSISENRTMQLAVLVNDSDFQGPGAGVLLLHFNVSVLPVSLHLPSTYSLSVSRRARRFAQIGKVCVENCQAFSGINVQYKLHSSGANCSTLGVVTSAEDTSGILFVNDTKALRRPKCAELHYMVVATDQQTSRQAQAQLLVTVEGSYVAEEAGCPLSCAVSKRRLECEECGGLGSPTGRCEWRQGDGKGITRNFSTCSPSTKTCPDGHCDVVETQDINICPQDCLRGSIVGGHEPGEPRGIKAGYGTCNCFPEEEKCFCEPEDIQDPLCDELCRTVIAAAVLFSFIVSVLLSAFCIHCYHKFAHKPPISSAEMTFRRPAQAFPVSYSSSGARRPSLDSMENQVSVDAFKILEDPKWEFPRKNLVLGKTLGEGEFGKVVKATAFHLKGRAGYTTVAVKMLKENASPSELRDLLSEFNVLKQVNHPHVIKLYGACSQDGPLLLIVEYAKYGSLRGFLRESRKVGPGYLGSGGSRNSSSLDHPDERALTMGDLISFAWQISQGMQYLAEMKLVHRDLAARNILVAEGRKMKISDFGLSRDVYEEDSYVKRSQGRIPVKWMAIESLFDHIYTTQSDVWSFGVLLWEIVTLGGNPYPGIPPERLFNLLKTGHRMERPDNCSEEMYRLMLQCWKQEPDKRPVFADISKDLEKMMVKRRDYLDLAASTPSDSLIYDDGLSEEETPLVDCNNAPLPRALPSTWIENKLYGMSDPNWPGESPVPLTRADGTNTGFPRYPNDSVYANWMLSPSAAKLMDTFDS

Structure (SMILES)	Kd
Cn1ncc(Cl)c1-c1cc(C(=O)N[C@H](CN)Cc2cccc(F)c2)sc1Cl [AFURESERTIB]	> 30 µM (inactive)
COc1cc(N2CCC(N3CCN(C)CC3)CC2)ccc1Nc1ncnc(Nc2ccccc2S(=O)(=O)C(C)C)n1 [ASP-3026]	> 30 µM (inactive)
CNS(=O)(=O)Nc1nccc(Cc2c(C)c3ccc(Oc4ncccn4)cc3oc2=O)c1F [AVUTOMETINIB]	> 30 µM (inactive)
Cc1cc2c(F)c(Oc3ncnn4cc(OC[C@@H](C)OC(=O)[C@H](C)N)c(C)c34)ccc2[nH]1 [BRIVANIB ALANINATE]	7.48 µM (active)
CNC(=O)c1ccc(-c2cnc3ncc(Cc4ccc5ncccc5c4)n3n2)cc1F [CAPMATINIB]	> 30 µM (inactive)

molecular target: Dual specificity protein kinase CLK2 (Homo sapiens, UniProt P49760)
Sequence (P49760 whole entry): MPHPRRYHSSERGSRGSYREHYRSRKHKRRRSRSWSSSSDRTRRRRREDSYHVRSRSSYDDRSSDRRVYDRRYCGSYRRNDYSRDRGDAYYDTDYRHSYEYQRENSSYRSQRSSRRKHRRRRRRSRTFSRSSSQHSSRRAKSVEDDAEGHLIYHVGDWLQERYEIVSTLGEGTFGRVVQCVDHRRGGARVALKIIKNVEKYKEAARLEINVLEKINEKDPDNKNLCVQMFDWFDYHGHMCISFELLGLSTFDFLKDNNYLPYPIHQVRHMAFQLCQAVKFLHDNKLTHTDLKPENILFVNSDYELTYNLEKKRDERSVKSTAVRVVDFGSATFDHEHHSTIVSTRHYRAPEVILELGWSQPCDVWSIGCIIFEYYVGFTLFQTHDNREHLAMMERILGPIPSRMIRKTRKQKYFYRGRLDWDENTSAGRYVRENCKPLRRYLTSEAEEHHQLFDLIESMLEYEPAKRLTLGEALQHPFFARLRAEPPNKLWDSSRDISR

Structure (SMILES)	Kd
COc1cc(N2CCC(N3CCN(C)CC3)CC2)ccc1Nc1ncnc(Nc2ccccc2S(=O)(=O)C(C)C)n1 [ASP-3026]	> 30 µM (inactive)
CNS(=O)(=O)Nc1nccc(Cc2c(C)c3ccc(Oc4ncccn4)cc3oc2=O)c1F [AVUTOMETINIB]	> 30 µM (inactive)
Cc1cc2c(F)c(Oc3ncnn4cc(OC[C@@H](C)OC(=O)[C@H](C)N)c(C)c34)ccc2[nH]1 [BRIVANIB ALANINATE]	> 30 µM (inactive)

molecular target: Serine/threonine-protein kinase MRCK gamma (Homo sapiens, UniProt Q6DT37)
Sequence (Q6DT37 whole entry): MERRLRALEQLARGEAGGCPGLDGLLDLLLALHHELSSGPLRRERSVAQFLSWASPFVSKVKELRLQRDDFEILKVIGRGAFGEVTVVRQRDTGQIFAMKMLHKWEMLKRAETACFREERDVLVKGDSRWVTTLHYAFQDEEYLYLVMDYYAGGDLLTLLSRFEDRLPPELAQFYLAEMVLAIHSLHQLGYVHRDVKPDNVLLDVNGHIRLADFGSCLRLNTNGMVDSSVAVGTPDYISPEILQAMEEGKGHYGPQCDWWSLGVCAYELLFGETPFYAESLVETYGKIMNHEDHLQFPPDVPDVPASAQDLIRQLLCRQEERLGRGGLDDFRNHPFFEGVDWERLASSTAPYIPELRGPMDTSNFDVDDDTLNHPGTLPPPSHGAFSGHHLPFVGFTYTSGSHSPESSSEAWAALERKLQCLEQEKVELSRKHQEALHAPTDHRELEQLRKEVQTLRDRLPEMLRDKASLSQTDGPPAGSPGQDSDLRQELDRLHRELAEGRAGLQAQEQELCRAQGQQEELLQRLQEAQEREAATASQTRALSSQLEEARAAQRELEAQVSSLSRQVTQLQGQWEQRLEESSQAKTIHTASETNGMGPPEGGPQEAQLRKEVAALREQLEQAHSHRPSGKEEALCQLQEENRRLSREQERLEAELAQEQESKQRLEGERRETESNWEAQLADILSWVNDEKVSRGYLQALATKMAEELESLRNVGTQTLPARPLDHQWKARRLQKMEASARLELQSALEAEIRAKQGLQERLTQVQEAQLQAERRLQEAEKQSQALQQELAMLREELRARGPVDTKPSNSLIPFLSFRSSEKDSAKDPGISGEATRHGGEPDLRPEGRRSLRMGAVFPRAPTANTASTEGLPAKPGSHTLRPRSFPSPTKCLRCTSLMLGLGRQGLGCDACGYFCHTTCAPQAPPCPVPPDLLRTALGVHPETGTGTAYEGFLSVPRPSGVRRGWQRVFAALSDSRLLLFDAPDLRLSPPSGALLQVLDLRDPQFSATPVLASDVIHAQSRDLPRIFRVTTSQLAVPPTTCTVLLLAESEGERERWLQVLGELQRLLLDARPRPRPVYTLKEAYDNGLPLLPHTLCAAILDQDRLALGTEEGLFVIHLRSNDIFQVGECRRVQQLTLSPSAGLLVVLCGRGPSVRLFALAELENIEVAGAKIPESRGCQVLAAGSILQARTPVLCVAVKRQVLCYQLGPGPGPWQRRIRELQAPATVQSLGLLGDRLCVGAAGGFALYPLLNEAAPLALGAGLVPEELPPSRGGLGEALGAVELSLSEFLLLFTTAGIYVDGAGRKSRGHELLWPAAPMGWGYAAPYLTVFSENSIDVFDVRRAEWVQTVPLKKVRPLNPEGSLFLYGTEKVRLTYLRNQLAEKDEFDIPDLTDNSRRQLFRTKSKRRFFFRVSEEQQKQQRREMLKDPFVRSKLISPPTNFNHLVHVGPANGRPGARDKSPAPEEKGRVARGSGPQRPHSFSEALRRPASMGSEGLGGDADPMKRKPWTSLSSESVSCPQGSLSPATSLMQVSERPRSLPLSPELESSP

Structure (SMILES)	Kd
Cn1ncc(Cl)c1-c1cc(C(=O)N[C@H](CN)Cc2cccc(F)c2)sc1Cl [AFURESERTIB]	> 30 µM (inactive)
COc1cc(N2CCC(N3CCN(C)CC3)CC2)ccc1Nc1ncnc(Nc2ccccc2S(=O)(=O)C(C)C)n1 [ASP-3026]	> 30 µM (inactive)
CNS(=O)(=O)Nc1nccc(Cc2c(C)c3ccc(Oc4ncccn4)cc3oc2=O)c1F [AVUTOMETINIB]	> 30 µM (inactive)
Cc1cc2c(F)c(Oc3ncnn4cc(OC[C@@H](C)OC(=O)[C@H](C)N)c(C)c34)ccc2[nH]1 [BRIVANIB ALANINATE]	> 30 µM (inactive)
CNC(=O)c1ccc(-c2cnc3ncc(Cc4ccc5ncccc5c4)n3n2)cc1F [CAPMATINIB]	> 30 µM (inactive)

molecular target: Phosphatidylethanolamine-binding protein 1 (Homo sapiens, UniProt P30086)
Sequence (P30086 whole entry): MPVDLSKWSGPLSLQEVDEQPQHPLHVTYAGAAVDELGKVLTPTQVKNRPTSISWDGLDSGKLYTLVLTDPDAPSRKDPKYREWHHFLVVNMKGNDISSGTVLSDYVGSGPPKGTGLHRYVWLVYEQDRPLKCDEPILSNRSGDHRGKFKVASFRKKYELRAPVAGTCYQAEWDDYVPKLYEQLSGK

Structure (SMILES)	Kd
Cn1ncc(Cl)c1-c1cc(C(=O)N[C@H](CN)Cc2cccc(F)c2)sc1Cl [AFURESERTIB]	> 30 µM (inactive)
COc1cc(N2CCC(N3CCN(C)CC3)CC2)ccc1Nc1ncnc(Nc2ccccc2S(=O)(=O)C(C)C)n1 [ASP-3026]	> 30 µM (inactive)
CNS(=O)(=O)Nc1nccc(Cc2c(C)c3ccc(Oc4ncccn4)cc3oc2=O)c1F [AVUTOMETINIB]	> 30 µM (inactive)
Cc1cc2c(F)c(Oc3ncnn4cc(OC[C@@H](C)OC(=O)[C@H](C)N)c(C)c34)ccc2[nH]1 [BRIVANIB ALANINATE]	> 30 µM (inactive)
CNC(=O)c1ccc(-c2cnc3ncc(Cc4ccc5ncccc5c4)n3n2)cc1F [CAPMATINIB]	> 30 µM (inactive)

molecular target: Epidermal growth factor receptor (Homo sapiens, UniProt P00533)

Structure (SMILES)	Kd
Cn1ncc(Cl)c1-c1cc(C(=O)N[C@H](CN)Cc2cccc(F)c2)sc1Cl [AFURESERTIB]	> 30 µM (inactive)
COc1cc(N2CCC(N3CCN(C)CC3)CC2)ccc1Nc1ncnc(Nc2ccccc2S(=O)(=O)C(C)C)n1 [ASP-3026]	20.8 µM (active)
CNS(=O)(=O)Nc1nccc(Cc2c(C)c3ccc(Oc4ncccn4)cc3oc2=O)c1F [AVUTOMETINIB]	> 30 µM (inactive)
Cc1cc2c(F)c(Oc3ncnn4cc(OC[C@@H](C)OC(=O)[C@H](C)N)c(C)c34)ccc2[nH]1 [BRIVANIB ALANINATE]	> 30 µM (inactive)
CNC(=O)c1ccc(-c2cnc3ncc(Cc4ccc5ncccc5c4)n3n2)cc1F [CAPMATINIB]	> 30 µM (inactive)

molecular target: T2, Isoleucine--tRNA ligase, mitochondrial (Homo sapiens, UniProt Q9NSE4)
T2 sequence (Q9NSE4 whole entry): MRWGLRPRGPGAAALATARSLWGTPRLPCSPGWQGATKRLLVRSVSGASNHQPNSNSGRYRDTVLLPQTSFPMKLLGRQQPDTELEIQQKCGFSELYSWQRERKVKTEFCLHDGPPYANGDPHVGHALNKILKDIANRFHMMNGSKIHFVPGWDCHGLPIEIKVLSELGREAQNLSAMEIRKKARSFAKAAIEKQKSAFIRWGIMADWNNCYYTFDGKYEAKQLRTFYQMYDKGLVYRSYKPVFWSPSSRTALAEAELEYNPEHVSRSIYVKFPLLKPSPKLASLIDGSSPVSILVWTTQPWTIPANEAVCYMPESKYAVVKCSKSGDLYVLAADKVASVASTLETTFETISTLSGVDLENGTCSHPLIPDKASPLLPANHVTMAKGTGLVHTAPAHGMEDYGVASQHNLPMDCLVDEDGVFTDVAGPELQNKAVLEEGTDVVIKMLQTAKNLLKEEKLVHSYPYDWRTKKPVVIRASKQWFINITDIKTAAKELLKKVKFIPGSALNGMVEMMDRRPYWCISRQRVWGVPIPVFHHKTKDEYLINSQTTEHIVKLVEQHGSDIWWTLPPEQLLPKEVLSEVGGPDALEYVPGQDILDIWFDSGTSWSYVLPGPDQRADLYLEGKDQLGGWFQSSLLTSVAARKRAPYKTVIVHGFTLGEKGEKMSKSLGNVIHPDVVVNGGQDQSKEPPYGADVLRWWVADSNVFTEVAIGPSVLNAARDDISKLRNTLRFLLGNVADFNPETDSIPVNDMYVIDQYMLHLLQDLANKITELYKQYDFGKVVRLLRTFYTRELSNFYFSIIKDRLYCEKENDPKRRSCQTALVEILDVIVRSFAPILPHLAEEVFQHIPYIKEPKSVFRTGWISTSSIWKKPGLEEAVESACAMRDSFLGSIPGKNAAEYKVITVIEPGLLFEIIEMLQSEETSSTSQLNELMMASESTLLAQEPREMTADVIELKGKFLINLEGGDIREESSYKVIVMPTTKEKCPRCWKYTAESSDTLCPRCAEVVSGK

Structure (SMILES)	Kd
CNC(=O)c1ccc(-c2cnc3ncc(Cc4ccc5ncccc5c4)n3n2)cc1F [CAPMATINIB]	> 30 µM (inactive)

molecular target: T3, Thyroid hormone receptor-associated protein 3 (Homo sapiens, UniProt Q9Y2W1)
T3 sequence (Q9Y2W1 whole entry): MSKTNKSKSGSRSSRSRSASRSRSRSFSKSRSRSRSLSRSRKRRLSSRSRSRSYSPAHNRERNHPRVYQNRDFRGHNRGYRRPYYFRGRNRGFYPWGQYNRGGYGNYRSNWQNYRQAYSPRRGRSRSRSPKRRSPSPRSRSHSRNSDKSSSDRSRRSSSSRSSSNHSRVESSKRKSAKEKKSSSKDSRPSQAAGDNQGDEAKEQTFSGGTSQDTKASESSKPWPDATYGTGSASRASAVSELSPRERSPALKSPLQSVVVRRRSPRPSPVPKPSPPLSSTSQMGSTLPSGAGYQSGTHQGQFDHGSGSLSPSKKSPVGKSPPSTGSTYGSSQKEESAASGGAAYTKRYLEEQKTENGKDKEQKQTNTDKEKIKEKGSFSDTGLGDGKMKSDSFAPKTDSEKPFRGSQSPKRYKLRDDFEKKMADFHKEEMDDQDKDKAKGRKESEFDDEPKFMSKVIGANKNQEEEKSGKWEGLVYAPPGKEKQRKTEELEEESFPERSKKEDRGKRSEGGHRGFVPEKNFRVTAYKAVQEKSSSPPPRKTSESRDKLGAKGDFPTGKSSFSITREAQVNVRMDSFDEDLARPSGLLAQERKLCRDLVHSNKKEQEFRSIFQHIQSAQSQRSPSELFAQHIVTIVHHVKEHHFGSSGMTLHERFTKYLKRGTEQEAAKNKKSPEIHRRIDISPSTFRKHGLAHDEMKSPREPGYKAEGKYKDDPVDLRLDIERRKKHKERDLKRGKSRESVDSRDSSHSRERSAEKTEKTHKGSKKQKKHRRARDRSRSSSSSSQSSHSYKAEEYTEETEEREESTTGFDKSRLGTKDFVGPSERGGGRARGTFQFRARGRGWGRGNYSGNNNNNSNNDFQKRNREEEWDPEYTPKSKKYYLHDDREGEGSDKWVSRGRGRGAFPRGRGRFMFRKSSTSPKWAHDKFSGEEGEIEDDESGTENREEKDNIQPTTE

Structure (SMILES)	Kd
COc1cc(N2CCC(N3CCN(C)CC3)CC2)ccc1Nc1ncnc(Nc2ccccc2S(=O)(=O)C(C)C)n1 [ASP-3026]	> 30 µM (inactive)
CNS(=O)(=O)Nc1nccc(Cc2c(C)c3ccc(Oc4ncccn4)cc3oc2=O)c1F [AVUTOMETINIB]	> 30 µM (inactive)
Cc1cc2c(F)c(Oc3ncnn4cc(OC[C@@H](C)OC(=O)[C@H](C)N)c(C)c34)ccc2[nH]1 [BRIVANIB ALANINATE]	> 30 µM (inactive)
